Experiments:
[1] = test system: collagen 1 mRNA expression in TGF-β induced HK-2 cells; assay: Inhibition of collagen 1 mRNA expression in TGF-β induced HK-2 epithelial cells (quantitative real-time PCR); type: cell-based, human; details: TGF-β 10 ng/mL; for expression of collagen in TGF-β-induced HK-2 cells (in words): concentration not given
Procedure: In epithelial cells, analysis was undertaken to determine the effect of compounds of the invention on TGF-β-induced collagen 1 (marker of fibrosis) on human proximal tubule epithelial cells (HK-2). HK-2 cells are immortalized proximal tubule epithelial cells, from human kidney, which were treated with TGF-β at a concentration of 10 ng/mL Expression of the profibrotic marker collagen 1 was determined by quantitative real-time PCR.

db/db diabetic mouse = assay: Glomerular filtration rate in nephrectomised db/db diabetic mouse model of renal fibrosis; type: in vivo; details: db/db mice, right nephrectomy day 0, GFR on day 119
Procedure: FIG. 1 illustrates the glomerular filtration rate (GFR) function in db/db diabetic mouse compared to C57BL/6 mice (control mice), and in db/db diabetic mouse following oral treatment with Compound 1 at a dose of 10 and 50 mg/kg.
Typical experimental models of kidney fibrosis in mice or rats include db/db nephritic mice (models for diabetic nephropathy) and reflects the nephropathy observed in human. Evaluation of the effect of Compound 1 on diabetic nephropathy was performed in a db/db mouse model. Briefly, total nephrectomy of the right kidney was performed on day 0 and db/db mice (6-week old) were treated with vehicle or Compound 1 (10 and 50 mg/kg, oral once a day) from day 1 and glomerular filtration rate (GFR) was measured on day 119 as a direct measure of kidney function. FIG. 1 illustrates the reduction of GFR in db/db diabetic mouse compared to C57BL/6 mice (control mice), showing clearly the nephropathy associated with diabetes.

[2] = test system: α-SMA mRNA expression in TGF-β induced NRK-49F cells; assay: Inhibition of α-SMA mRNA expression in TGF-β induced NRK-49F cells (quantitative real-time PCR); type: cell-based, rat; details: TGF-β 10 ng/ml
Procedure: In fibroblast, analysis was undertaken to determine the effect of preferred compounds of the present invention on TGF-β-induced α-SMA (marker of fibrosis) mRNA expression on normal rat kidney fibroblast (NRK-49F). NRK-49F were treated with TGF-β at a concentration of 10 ng/ml and became activated (myofibroblast) and expressed α-SMA. Expression of the profibrotic marker α-SMA was determined by quantitative real-time PCR.

## CCCCCc1cc(CCCCC)cc(CC(=O)[O-])c1.[Na+] [Compound 1, Sodium 2-[3,5-Dipentylphenyl]acetate]
[1]; 0.02 mM compound
  Collagen expression in HK-2 cells % of inhibition [mM]: 100% [0.02]
[1]
  expression of collagen in TGF-β-induced HK-2 cells (in words): inhibits the expression of collagen
db/db diabetic mouse; 10 mg/kg oral once a day from day 1
  glomerular filtration rate (GFR): increases the GFR function of the kidney up to normal
db/db diabetic mouse; 50 mg/kg oral once a day from day 1
  glomerular filtration rate (GFR): increases the GFR function of the kidney up to normal
[2]; 0.01 mM compound
  α-SMA expression in NRK-49F % of inhibition [mM]: 94% [0.01]
other
  melting point: 225 to 230 °C

## CCCCCCc1cc(CCCCCC)cc(CC(=O)[O-])c1.[Na+] [Compound 2, Sodium Salt of 2-(3,5-Dihexylphenyl)acetic acid]
[1]; 0.008 mM compound
  Collagen expression in HK-2 cells % of inhibition [mM]: 100% [0.008]
[1]
  expression of collagen in TGF-β-induced HK-2 cells (in words): inhibits the expression of collagen
[2]; 0.006 mM compound
  α-SMA expression in NRK-49F % of inhibition [mM]: 89% [0.006]

## CCCCCc1cc(CCCCC)c(O)c(CC(=O)[O-])c1.[Na+] [Compound 3, Sodium Salt of 2-(2-Hydroxy-3,5-dipentylphenyl)acetic acid]
[2]; 0.0125 mM compound
  α-SMA expression in NRK-49F % of inhibition [mM]: 100% [0.0125]

## CCCCCc1cc(CC(=O)[O-])cc(CCCCC)c1O.[Na+] [Compound 5, Sodium Salt of 2-(4-Hydroxy-3,5-dipentylphenyl)acetic acid]
[2]; 0.025 mM compound
  α-SMA expression in NRK-49F % of inhibition [mM]: 41% [0.025]

— patent US10023518B2, “Substituted aromatic compounds and related method for the treatment of fibrosis” (PROMETIC BIOSCIENCES INC., priority 2013, dated 2018)
